The source made the active and inactive calls. The rule behind the calls is not given here.
Assays:
Mus musculus [1] = assay: Antiinflammatory activity against ip dosed BALB/c mouse model of heat-killed Propionibacterium acnes-induced peritonitis assessed as decrease in number of neutrophils administered 12 hrs post Propionibacterium acnes injection and measured after 12 hrs; type: functional, organism-based
Mus musculus [2] = assay: Antiinflammatory activity against BALB/c mouse model of heat-killed Propionibacterium acnes-induced peritonitis assessed as decrease in number of neutrophils at 300 pg, ip administered 12 hrs post Propionibacterium acnes injection and measured after 12 hrs; type: functional, organism-based
[3] = Metabolic stability in human liver microsomes assessed as parent compound remaining measured after 6 hrs by HPLC analysis; type: ADME, Microsome; conditions: read-out: Stability

SMILES	inhibition (Mus musculus [1])	inhibition (Mus musculus [2])	remaining at 6 h [3]
CC[C@@H](O)/C=C/c1ccccc1C/C=C/[C@@H](O)CCCC(=O)O	Dose-dependent effect	Active	–
CC[C@@H](O)/C=C/c1cccc(C/C=C/[C@@H](O)CCCC(=O)O)c1	–	inactive	–
CC[C@@H](O)/C=C/C=C\C/C=C\C/C=C\C=C\[C@@H](O)CCCC(=O)O	Dose-dependent effect	Active	< 40%
CC[C@@H](O)/C=C/c1ccc(C/C=C/[C@@H](O)CCCC(=O)O)cc1	–	inactive	< 40%

Reference: ChEMBL document CHEMBL4342510, “Design and Synthesis of Benzene Congeners of Resolvin E2, a Proresolving Lipid Mediator, as Its Stable Equivalents” (ACS Med Chem Lett, 2020)
